Usually IC50 stands for the midpoint of a concentration-inhibition curve.

Consider 15 compounds from US20240051985A1, “METTL3 MODULATORS” (ACCENT THERAPEUTICS, INC., priority 2020, published 2024).

A value given as a limit tells only on which side of the number the result lay.

The target of one assay is PRMT5-MEP50 (Homo sapiens, UniProt O14744). In words: PRMT5 assay (3H-SAM flashplate). The conditions noted are these: Table 4; PRMT5 biochemical assay. The method, then: Assays were performed in a 25 μl-volume in 384-well V-bottom polypropylene microplates (Greiner Bio-One, cat. No. 781280) at ambient temperature. Optimized 1× assay buffer was 20 mM Tris-HCl pH 8.0, 1 mM DTT, […]. For compound screening PRMT5-MEP50 (final concentration, f.c.=2.5 nM) was added using a Multidrop Combi (ThermoFisher Scientific, Waltham, MA) and preincubated for 5 min. Reactions were started by adding 3′ biotinylated histone H4 peptide acetylated on serine 1 (Ac-[…]-Biotin) (f.c.=100 nM) and 3H-SAM (f.c.=250 nM) substrates. Reactions proceeded for 60 minutes and were quenched with excess non-radioactive SAM (f.c.=15 μM). The reactions were then transferred to streptavidin-coated flashplates and incubated for 2 hours at 25° C. Following two washing cycles with 0.1% Tween-20, the plates were sealed and read on a TopCount (PerkinElmer, Waltham, MA) plate-based scintillation counter. For determination of kinetic parameters, reaction times were optimized so that measurements were taken during the initial velocity phase of the reaction.

The target of the next assay is METTL3/METTL14 (Homo sapiens, UniProt Q86U44). In words: METTL3-14 standard enzyme assay (3H-SAM flashplate). The conditions noted are these: Table 4; METTL3 biochemical assay. A digest of the protocol:
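METTL3/METTL14 (2.5 nM) preincubated 5 min, then reacted with 3′-biotinylated RNA UCUGGACUAAA (100 nM) and 3H-SAM (100 nM) for 30 min at ambient temperature in 20 mM HEPES pH 7.5, 50 mM KCl, 250 μM MgCl2, 1 mM DTT. Quenched with 15 μM cold SAM; product captured on streptavidin flashplates, scintillation counted.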

In a further assay the target is T1, FLT3 (Homo sapiens, UniProt P36888).
T1 sequence (P36888 27-993): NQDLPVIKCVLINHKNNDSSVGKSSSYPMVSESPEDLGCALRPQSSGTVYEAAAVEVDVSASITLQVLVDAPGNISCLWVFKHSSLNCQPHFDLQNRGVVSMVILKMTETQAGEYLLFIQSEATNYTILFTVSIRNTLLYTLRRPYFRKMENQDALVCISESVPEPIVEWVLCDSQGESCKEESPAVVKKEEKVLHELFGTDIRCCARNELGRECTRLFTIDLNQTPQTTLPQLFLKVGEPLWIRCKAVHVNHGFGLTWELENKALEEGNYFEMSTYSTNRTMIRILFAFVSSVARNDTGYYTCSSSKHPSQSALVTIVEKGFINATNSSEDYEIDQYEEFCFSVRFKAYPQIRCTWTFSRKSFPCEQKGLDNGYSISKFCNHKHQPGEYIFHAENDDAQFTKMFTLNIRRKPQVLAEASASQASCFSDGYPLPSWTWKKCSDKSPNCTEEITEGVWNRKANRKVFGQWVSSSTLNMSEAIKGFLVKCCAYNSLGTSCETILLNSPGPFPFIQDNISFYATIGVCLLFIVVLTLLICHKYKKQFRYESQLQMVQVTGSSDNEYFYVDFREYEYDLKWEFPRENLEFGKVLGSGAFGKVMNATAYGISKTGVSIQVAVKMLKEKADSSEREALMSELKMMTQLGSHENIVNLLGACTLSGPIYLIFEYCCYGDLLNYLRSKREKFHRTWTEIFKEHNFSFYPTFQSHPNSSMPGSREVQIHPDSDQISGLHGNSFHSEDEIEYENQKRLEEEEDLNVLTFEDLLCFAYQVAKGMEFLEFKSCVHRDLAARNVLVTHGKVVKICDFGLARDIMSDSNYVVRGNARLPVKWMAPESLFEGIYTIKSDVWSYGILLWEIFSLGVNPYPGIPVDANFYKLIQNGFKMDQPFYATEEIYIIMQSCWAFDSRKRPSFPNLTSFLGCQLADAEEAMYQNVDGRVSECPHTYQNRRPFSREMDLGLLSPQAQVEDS
In words: FLT3 Caliper assay. The note with it: Table 4; read-out: FLT3 Calipher assay IC50. It is filed as biochemical. Here is the method: (§1) FLT3/FLT3-ITD Caliper Assays
(§2) Assays were performed in a 20 μl-volume in 384-well polypropylene microplates (Perkin Elmer Proxiplate, cat. No. 6059480) at ambient temperature. Optimized 1× assay buffer was 50 mM Hepes pH 7.5, 2 mM DTT, 0.01% Tween, 0.01% BSA, 10 mM MgCl2. For compound screening FLT3 (final concentration, f.c.=0.9 nM) or FLT3-ITD (f.c.=7 nM) was added using a Multidrop Combi (ThermoFisher Scientific, Waltham, MA) and preincubated for 10 min. Reactions were started by adding fluorescein-peptide (sequence 5-FAM-EAIYAAPFAKKK-CONH2) (f.c.=300 μM) and ATP (FLT3 f.c.=97 μM FLT3-ITD f.c.=146 μM) substrates. Reactions proceeded for 60 minutes. The reactions were stopped with LabChip ProfilerPro Separation Buffer containing EDTA (f.c.=20 mM). The plates were read on a Caliper microfluidics reader (PerkinElmer, Waltham, MA).

A further assay has as its target T2, FLT3-ITD (Homo sapiens, UniProt P36888).
T2 sequence (P36888 1-993): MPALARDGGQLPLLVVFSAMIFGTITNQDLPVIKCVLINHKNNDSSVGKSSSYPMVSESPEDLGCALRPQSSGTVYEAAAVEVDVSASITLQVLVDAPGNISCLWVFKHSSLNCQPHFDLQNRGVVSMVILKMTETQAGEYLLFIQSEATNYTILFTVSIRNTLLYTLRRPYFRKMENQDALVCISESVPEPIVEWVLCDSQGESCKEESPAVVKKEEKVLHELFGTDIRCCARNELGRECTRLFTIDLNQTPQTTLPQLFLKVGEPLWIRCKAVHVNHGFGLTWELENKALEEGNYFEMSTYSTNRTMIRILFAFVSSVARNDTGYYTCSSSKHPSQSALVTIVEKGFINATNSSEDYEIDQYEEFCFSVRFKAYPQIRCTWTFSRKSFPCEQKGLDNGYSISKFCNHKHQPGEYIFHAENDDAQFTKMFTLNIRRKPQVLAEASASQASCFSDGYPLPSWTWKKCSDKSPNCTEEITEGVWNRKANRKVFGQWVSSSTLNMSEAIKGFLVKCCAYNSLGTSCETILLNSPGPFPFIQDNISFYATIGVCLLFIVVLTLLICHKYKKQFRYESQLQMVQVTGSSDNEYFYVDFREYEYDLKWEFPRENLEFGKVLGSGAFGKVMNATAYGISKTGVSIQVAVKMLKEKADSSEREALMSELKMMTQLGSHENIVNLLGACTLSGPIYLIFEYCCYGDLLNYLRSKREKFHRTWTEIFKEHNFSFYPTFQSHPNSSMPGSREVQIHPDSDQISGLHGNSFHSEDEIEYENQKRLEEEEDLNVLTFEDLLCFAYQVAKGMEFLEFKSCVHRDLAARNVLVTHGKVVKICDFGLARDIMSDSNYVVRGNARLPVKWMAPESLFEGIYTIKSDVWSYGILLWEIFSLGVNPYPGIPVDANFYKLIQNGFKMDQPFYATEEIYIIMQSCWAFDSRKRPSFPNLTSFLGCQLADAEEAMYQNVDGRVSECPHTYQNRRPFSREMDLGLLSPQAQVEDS
In words: FLT3-ITD Caliper assay. The format is biochemical. The note with it: Table 4; read-out: FLT3-ITD Calipher assay IC50. Here is the method:
as §1, §2

Sequence of PRMT5-MEP50 (O14744 whole entry): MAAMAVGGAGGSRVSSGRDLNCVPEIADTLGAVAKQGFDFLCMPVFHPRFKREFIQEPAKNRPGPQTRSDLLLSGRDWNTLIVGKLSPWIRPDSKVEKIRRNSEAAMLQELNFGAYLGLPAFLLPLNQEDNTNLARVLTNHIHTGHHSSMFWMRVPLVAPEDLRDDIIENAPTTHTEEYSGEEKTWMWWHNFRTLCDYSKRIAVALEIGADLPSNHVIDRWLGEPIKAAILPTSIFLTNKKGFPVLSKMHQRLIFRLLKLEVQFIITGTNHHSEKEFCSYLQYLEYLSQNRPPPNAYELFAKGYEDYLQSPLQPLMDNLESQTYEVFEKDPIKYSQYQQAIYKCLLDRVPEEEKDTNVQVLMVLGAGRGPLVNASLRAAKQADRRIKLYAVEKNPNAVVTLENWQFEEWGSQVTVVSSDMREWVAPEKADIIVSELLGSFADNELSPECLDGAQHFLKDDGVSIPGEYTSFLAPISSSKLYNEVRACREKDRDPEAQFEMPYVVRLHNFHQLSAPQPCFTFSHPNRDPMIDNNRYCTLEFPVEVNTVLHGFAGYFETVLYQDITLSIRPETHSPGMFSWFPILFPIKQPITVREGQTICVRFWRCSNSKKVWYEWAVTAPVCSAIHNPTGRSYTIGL
Sequence of PRMT5-MEP50 (Q9BQA1 whole entry partner): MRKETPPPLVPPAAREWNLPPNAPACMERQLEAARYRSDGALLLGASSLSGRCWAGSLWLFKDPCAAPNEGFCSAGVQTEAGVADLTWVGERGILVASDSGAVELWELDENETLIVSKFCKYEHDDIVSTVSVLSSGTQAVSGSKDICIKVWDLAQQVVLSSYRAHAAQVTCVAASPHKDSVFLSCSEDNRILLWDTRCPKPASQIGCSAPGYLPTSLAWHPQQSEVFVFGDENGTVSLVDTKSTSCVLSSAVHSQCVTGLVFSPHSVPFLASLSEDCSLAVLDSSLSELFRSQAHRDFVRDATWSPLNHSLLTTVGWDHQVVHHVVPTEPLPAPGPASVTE
Sequence of METTL3/METTL14 (Q86U44 whole entry, species assumed): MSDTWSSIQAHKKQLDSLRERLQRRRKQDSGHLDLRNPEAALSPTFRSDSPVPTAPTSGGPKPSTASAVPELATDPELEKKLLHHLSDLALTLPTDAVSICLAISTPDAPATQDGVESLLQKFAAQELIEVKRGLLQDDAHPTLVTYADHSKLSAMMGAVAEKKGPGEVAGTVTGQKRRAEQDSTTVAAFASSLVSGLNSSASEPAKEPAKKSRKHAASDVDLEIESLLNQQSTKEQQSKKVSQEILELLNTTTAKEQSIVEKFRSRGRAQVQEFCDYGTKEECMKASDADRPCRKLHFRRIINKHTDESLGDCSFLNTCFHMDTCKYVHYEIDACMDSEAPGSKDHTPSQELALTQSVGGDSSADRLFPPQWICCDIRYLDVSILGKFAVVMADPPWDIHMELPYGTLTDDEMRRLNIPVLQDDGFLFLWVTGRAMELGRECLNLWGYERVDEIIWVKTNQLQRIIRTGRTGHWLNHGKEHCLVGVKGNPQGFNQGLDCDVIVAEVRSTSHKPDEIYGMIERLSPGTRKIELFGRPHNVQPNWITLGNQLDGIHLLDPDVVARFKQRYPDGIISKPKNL
Sequence of METTL3/METTL14 (Q9HCE5 whole entry partner, species assumed): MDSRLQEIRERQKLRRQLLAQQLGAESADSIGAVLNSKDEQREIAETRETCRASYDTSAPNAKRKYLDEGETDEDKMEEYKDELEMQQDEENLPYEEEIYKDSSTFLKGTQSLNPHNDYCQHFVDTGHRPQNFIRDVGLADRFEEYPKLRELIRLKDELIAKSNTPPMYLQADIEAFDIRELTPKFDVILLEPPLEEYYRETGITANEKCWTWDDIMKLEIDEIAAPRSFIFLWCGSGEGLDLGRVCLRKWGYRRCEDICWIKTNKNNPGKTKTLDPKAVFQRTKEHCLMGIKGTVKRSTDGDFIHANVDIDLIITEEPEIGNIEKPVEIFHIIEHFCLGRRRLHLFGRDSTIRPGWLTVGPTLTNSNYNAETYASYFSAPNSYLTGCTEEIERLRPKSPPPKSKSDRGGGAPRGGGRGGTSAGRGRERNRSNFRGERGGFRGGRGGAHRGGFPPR

Turning to `Cn1ccc(-c2cn([C@@H]3O[C@H](C(=O)NC4CCc5nc(N)sc5C4)[C@@H](O)[C@H]3O)c3ncnc(N)c23)n1` (stereo in doubt) [Compound I-161], the IC50 was 100 to 1000 nM at PRMT5-MEP50, 100 to 1000 nM on METTL3/METTL14, no less than 1000 nM at FLT3 and no less than 1000 nM on FLT3-ITD.
For `Cn1ccc(-c2cn([C@@H]3O[C@H](C(=O)Nc4ccc5ccc(N6CCC6)nc5c4)[C@@H](O)[C@@H]3F)c3ncnc(N)c23)n1` [Compound I-33, (2S,3R,4S,5R)-5-[4-amino-5-(1-methyl-1H-pyrazol-3-yl)-7H-pyrrolo[2,3-d]pyrimidin-7-yl]-N-[2-(azetidin-1-yl)quinolin-7-yl]-4-fluoro-3-hydroxyoxolane-2-carboxamide], the IC50 at PRMT5-MEP50 was no less than 1000 nM; on METTL3/METTL14 it was less than 10 nM; on FLT3, no less than 1000 nM; on FLT3-ITD it was no less than 1000 nM.
On to `Nc1ncnc2c1ccn2[C@@H]1O[C@H](C(=O)Nc2ccc3ccc(N4CCC4)nc3c2)[C@@H](O)[C@@H]1F` [Compound I-34, (2S,3R,4S,5R)-5-{4-amino-7H-pyrrolo[2,3-d]pyrimidin-7-yl}-N-[2-(azetidin-1-yl)quinolin-7-yl]-4-fluoro-3-hydroxyoxolane-2-carboxamide], for which the IC50 is no less than 1000 nM at PRMT5-MEP50, 10 to 100 nM at METTL3/METTL14, no less than 1000 nM at FLT3 and no less than 1000 nM on FLT3-ITD.
With `CCNc1ccnc(NC(=O)[C@H]2O[C@@H](n3cc(-c4ccn(C)n4)c4c(N)ncnc43)[C@H](O)[C@@H]2O)n1` [Compound I-36], the IC50 against PRMT5-MEP50 was 100 to 1000 nM; at METTL3/METTL14, no less than 1000 nM; on FLT3 it was no less than 1000 nM; on FLT3-ITD it was no less than 1000 nM.
As for `CC(=O)N1CCC(NC(=O)[C@H]2O[C@@H](n3cc(-c4ccn(C)n4)c4c(N)ncnc43)[C@H](O)[C@@H]2O)CC1` [Compound I-37], the 50% inhibitory concentration (IC50) at PRMT5-MEP50, on METTL3/METTL14, on FLT3 and on FLT3-ITD was no less than 1000 nM in each case.
Regarding `COc1cccc(CNC(=O)[C@H]2O[C@@H](n3cc(-c4ccn(C)n4)c4c(N)ncnc43)[C@H](O)[C@@H]2O)c1` [Compound I-40], the concentration for half-maximal inhibition (IC50) against PRMT5-MEP50 is 100 to 1000 nM; at METTL3/METTL14, 100 to 1000 nM; on FLT3, no less than 1000 nM; on FLT3-ITD it was no less than 1000 nM.
In the case of `N#Cc1cn([C@@H]2O[C@H](C(=O)Nc3ccc4ccc(N5CCC5)nc4c3)[C@@H](O)[C@H]2O)c2ncnc(N)c12` [Compound I-52, (2S,3S,4R,5R)-5-{4-amino-5-cyano-7H-pyrrolo[2,3-d]pyrimidin-7-yl}-N-[2-(azetidin-1-yl)quinolin-7-yl]-3,4-dihydroxyoxolane-2-carboxamide], the concentration for half-maximal inhibition (IC50) fell in the range of 100 to 1000 nM on PRMT5-MEP50, 10 to 100 nM at METTL3/METTL14, 100 to 1000 nM on FLT3 and 100 to 1000 nM on FLT3-ITD.
On to `CN1CCC(NC(=O)[C@H]2O[C@@H](n3cc(-c4ccn(C)n4)c4c(N)ncnc43)[C@@H](F)[C@@H]2O)CC1` [Compound I-60], for which the IC50 on PRMT5-MEP50 was no less than 1000 nM; against METTL3/METTL14 it was 100 to 1000 nM; on FLT3, no less than 1000 nM; at FLT3-ITD, no less than 1000 nM.
For `CNc1nc2ccc(NC(=O)[C@H]3O[C@@H](n4cc(-c5ccn(C)n5)c5c(N)ncnc54)[C@H](O)[C@@H]3O)cc2[nH]1` [Compound I-142], the IC50 against PRMT5-MEP50 is less than 10 nM; on METTL3/METTL14, less than 10 nM; at FLT3, no less than 1000 nM; on FLT3-ITD it was no less than 1000 nM.
In the case of `CCN(CC)C(=O)[C@H]1O[C@@H](n2cc(-c3ccn(C)n3)c3c(N)ncnc32)[C@H](O)[C@@H]1O` [Compound I-150], the IC50 was 100 to 1000 nM against PRMT5-MEP50, no less than 1000 nM against METTL3/METTL14, no less than 1000 nM on FLT3 and no less than 1000 nM on FLT3-ITD.
For the compound `Cn1ccc(-c2cn([C@@H]3O[C@H](C(=O)Nc4cccnc4)[C@@H](O)[C@H]3O)c3ncnc(N)c23)n1` [Compound I-156], the IC50 at PRMT5-MEP50 is 10 to 100 nM; on METTL3/METTL14 it was 100 to 1000 nM; at FLT3 it was no less than 1000 nM; at FLT3-ITD, no less than 1000 nM.
As for `COc1cccc(NC(=O)[C@H]2O[C@@H](n3cc(-c4ccn(C)n4)c4c(N)ncnc43)[C@H](O)[C@@H]2O)c1` [Compound I-157], the IC50 is 100 to 1000 nM against PRMT5-MEP50, no less than 1000 nM against METTL3/METTL14, no less than 1000 nM on FLT3 and no less than 1000 nM on FLT3-ITD.
`Cn1ccc(-c2cn([C@@H]3O[C@H](C(=O)Nc4cc(F)cc(F)c4)[C@@H](O)[C@H]3O)c3ncnc(N)c23)n1` [Compound I-158]: the 50% inhibitory concentration (IC50) against PRMT5-MEP50 was 100 to 1000 nM; on METTL3/METTL14, no less than 1000 nM; on FLT3 it was no less than 1000 nM; at FLT3-ITD, no less than 1000 nM.
`Cn1ccc(-c2cn([C@@H]3O[C@H](C(=O)NCCc4cccnc4)[C@@H](O)[C@H]3O)c3ncnc(N)c23)n1` [Compound I-160]: the IC50 at PRMT5-MEP50 is 10 to 100 nM; on METTL3/METTL14, no less than 1000 nM; at FLT3 it was no less than 1000 nM; at FLT3-ITD it was no less than 1000 nM.
In the case of `Cn1ccc(-c2cn([C@@H]3O[C@H](C(=O)Nc4ccccc4)[C@@H](O)[C@H]3O)c3ncnc(N)c23)n1` [Compound I-173], the results for the IC50 at METTL3/METTL14, on FLT3 and on FLT3-ITD were 100 to 1000 nM, no less than 1000 nM and no less than 1000 nM, respectively.
